Source: ChEMBL document CHEMBL4152314, “Symmetrical and unsymmetrical substituted 2,5-diarylidene cyclohexanones as anti-parasitic compounds” (Eur J Med Chem, 2018)
pEC50, pIC50: −log10 of the molar value. One block for each compound: values may come before it.

What was measured:
[1] = Selectivity index, ratio of CC50 for African green monkey Vero cells to IC50 for promastigote form of Leishmania amazonensis MHOM/BR/Josefa; assay type: toxicity; settings: read-out: Ratio CC50/IC50
[2] = Selectivity index, ratio of CC50 for African green monkey Vero cells to IC50 for epimastigote form of Trypanosoma cruzi Y; assay type: toxicity; settings: read-out: Ratio CC50/IC50
Trypanosoma cruzi [3] = assay: Antiparasitic activity against trypomastigote form of Trypanosoma cruzi assessed as parasite lysis after 24 hrs by Pizzi-Brener method; assay type: functional, organism-based
[4] = Cytotoxicity against African green monkey Vero cells assessed as growth inhibition; assay type: cell-based; settings: chlorocebus sabaeus
Trypanosoma cruzi [5] = assay: Antiparasitic activity against epimastigote form of Trypanosoma cruzi Y assessed as parasite growth inhibition after 96 hrs by Neubauer hemocytometer; assay type: functional, organism-based
Leishmania amazonensis = assay: Antiparasitic activity against promastigote form of Leishmania amazonensis MHOM/BR/Josefa assessed as parasite growth inhibition after 72 hrs by Neubauer hemocytometer; assay type: functional, organism-based
[6] = Selectivity index, ratio of CC50 for African green monkey Vero cells to EC50 for trypomastigote form of Trypanosoma cruzi; assay type: toxicity; settings: read-out: Ratio CC50/EC50

SMILES: COc1cccc(/C=C2\CCC/C(=C\c3ccccc3)C2=O)c1OC
selectivity ratio [1]: 2 | selectivity ratio [2]: 1.3 | pEC50 (Trypanosoma cruzi [3]): 4.22 | selectivity ratio [6]: 0.6 | CC50 [4]: 33.5 µM | pIC50 (Trypanosoma cruzi [5]): 4.59 | pIC50 (Leishmania amazonensis): 4.78

SMILES: COc1cccc(/C=C2\CCC/C(=C\c3cccc(OC)c3OC)C2=O)c1OC
selectivity ratio [1]: 6.1 | selectivity ratio [2]: 1.1 | pEC50 (Trypanosoma cruzi [3]): 4.57 | selectivity ratio [6]: 0.9 | CC50 [4]: 24.9 µM | pIC50 (Trypanosoma cruzi [5]): 4.63 | pIC50 (Leishmania amazonensis): 5.39

SMILES: COc1ccc(/C=C2\CCC/C(=C\c3ccc(F)cc3)C2=O)cc1
selectivity ratio [1]: 35 | selectivity ratio [2]: 18 | pEC50 (Trypanosoma cruzi [3]): < 4.00 | CC50 [4]: 378 µM | pIC50 (Trypanosoma cruzi [5]): 4.68 | pIC50 (Leishmania amazonensis): 4.97

SMILES: COc1ccc(/C=C2\CCC/C(=C\c3ccc(OC)cc3)C2=O)cc1
selectivity ratio [1]: 5.3 | selectivity ratio [2]: 2.8 | pEC50 (Trypanosoma cruzi [3]): < 4.00 | CC50 [4]: 178 µM | pIC50 (Trypanosoma cruzi [5]): 4.20 | pIC50 (Leishmania amazonensis): 4.48

SMILES: O=C1/C(=C/c2ccc(Cl)cc2)CCC/C1=C\c1ccc(Cl)cc1
selectivity ratio [1]: 8.9 | selectivity ratio [2]: 2 | pEC50 (Trypanosoma cruzi [3]): 4.07 | selectivity ratio [6]: 0.4 | CC50 [4]: 32.1 µM | pIC50 (Trypanosoma cruzi [5]): 4.79 | pIC50 (Leishmania amazonensis): 5.44

SMILES: O=C1/C(=C/c2ccc(F)cc2)CCC/C1=C\c1ccc(F)cc1
selectivity ratio [1]: 8 | selectivity ratio [2]: 1.4 | pEC50 (Trypanosoma cruzi [3]): 4.16 | selectivity ratio [6]: 0.5 | CC50 [4]: 34.4 µM | pIC50 (Trypanosoma cruzi [5]): 4.61 | pIC50 (Leishmania amazonensis): 5.37

SMILES: O=C1/C(=C/c2ccccc2Cl)CCC/C1=C\c1ccccc1Cl
selectivity ratio [1]: 6.7 | selectivity ratio [2]: 1.1 | pEC50 (Trypanosoma cruzi [3]): 4.44 | selectivity ratio [6]: 0.8 | CC50 [4]: 30.6 µM | pIC50 (Trypanosoma cruzi [5]): 4.56 | pIC50 (Leishmania amazonensis): 5.34

SMILES: COc1cccc(/C=C2\CCC/C(=C\c3ccc(F)cc3)C2=O)c1OC
selectivity ratio [1]: 7.1 | selectivity ratio [2]: 1.4 | pEC50 (Trypanosoma cruzi [3]): 4.15 | selectivity ratio [6]: 0.5 | CC50 [4]: 33.2 µM | pIC50 (Trypanosoma cruzi [5]): 4.61 | pIC50 (Leishmania amazonensis): 5.33

SMILES: O=C(Cn1ccnc1[N+](=O)[O-])NCc1ccccc1 [BENZNIDAZOLE]
pIC50 (Trypanosoma cruzi [5]): 5.19

SMILES: COc1ccc(/C=C2\CCC/C(=C\c3ccccc3F)C2=O)cc1
selectivity ratio [1]: 29.9 | selectivity ratio [2]: 19.8 | pEC50 (Trypanosoma cruzi [3]): < 4.00 | CC50 [4]: 270 µM | pIC50 (Trypanosoma cruzi [5]): 4.87 | pIC50 (Leishmania amazonensis): 5.05

SMILES: COc1ccc(/C=C2\CCC/C(=C\c3cccc(OC)c3OC)C2=O)cc1
selectivity ratio [1]: 45.1 | selectivity ratio [2]: 77.2 | pEC50 (Trypanosoma cruzi [3]): 4.56 | selectivity ratio [6]: 14.6 | CC50 [4]: 401 µM | pIC50 (Trypanosoma cruzi [5]): 5.28 | pIC50 (Leishmania amazonensis): 5.05

SMILES: COc1cc(/C=C/C(=O)CC(=O)/C=C/c2ccc(O)c(OC)c2)ccc1O [CURCUMIN]
selectivity ratio [2]: 0.5 | pEC50 (Trypanosoma cruzi [3]): 4.82 | selectivity ratio [6]: 2.5 | CC50 [4]: 36.8 µM | pIC50 (Trypanosoma cruzi [5]): 4.17 | pIC50 (Leishmania amazonensis): < 4.00

SMILES: COc1ccc(/C=C2\CCC/C(=C\c3c(Cl)cccc3Cl)C2=O)cc1
selectivity ratio [1]: 44.6 | selectivity ratio [2]: 11.3 | pEC50 (Trypanosoma cruzi [3]): 4.27 | selectivity ratio [6]: 4.3 | CC50 [4]: 232 µM | pIC50 (Trypanosoma cruzi [5]): 4.69 | pIC50 (Leishmania amazonensis): 5.28

SMILES: COc1ccc(/C=C2\CCC/C(=C\c3ccccc3Cl)C2=O)cc1
selectivity ratio [1]: 18.3 | selectivity ratio [2]: 8.9 | pEC50 (Trypanosoma cruzi [3]): < 4.00 | CC50 [4]: 238 µM | pIC50 (Trypanosoma cruzi [5]): 4.58 | pIC50 (Leishmania amazonensis): 4.89

SMILES: COc1ccc(/C=C2\CCC/C(=C\c3ccc(N(C)C)cc3)C2=O)cc1
selectivity ratio [1]: 4.3 | pEC50 (Trypanosoma cruzi [3]): < 4.00 | CC50 [4]: 392 µM | pIC50 (Trypanosoma cruzi [5]): < 4.00 | pIC50 (Leishmania amazonensis): 4.04

SMILES: COc1ccc(/C=C2\CCC/C(=C\c3ccc(Br)cc3)C2=O)cc1
selectivity ratio [1]: 14.5 | selectivity ratio [2]: 4.5 | pEC50 (Trypanosoma cruzi [3]): < 4.00 | CC50 [4]: 250 µM | pIC50 (Trypanosoma cruzi [5]): 4.26 | pIC50 (Leishmania amazonensis): 4.76

SMILES: O=C1/C(=C/c2cccc(Br)c2)CCC/C1=C\c1cccc(Br)c1
selectivity ratio [1]: 15.6 | selectivity ratio [2]: 1.1 | pEC50 (Trypanosoma cruzi [3]): 4.20 | selectivity ratio [6]: 0.6 | CC50 [4]: 35.9 µM | pIC50 (Trypanosoma cruzi [5]): 4.48 | pIC50 (Leishmania amazonensis): 5.64

SMILES: COc1cccc(/C=C2\CCC/C(=C\c3cccc(Br)c3)C2=O)c1OC
selectivity ratio [1]: 1.6 | selectivity ratio [2]: 1 | pEC50 (Trypanosoma cruzi [3]): 4.14 | selectivity ratio [6]: 0.4 | CC50 [4]: 31.5 µM | pIC50 (Trypanosoma cruzi [5]): 4.48 | pIC50 (Leishmania amazonensis): 4.70

SMILES: COc1ccc(/C=C2\CCCCC2=O)cc1
selectivity ratio [1]: 3.6 | selectivity ratio [2]: 3.5 | pEC50 (Trypanosoma cruzi [3]): < 4.00 | CC50 [4]: 194 µM | pIC50 (Trypanosoma cruzi [5]): 4.26 | pIC50 (Leishmania amazonensis): 4.27

SMILES: O=C1/C(=C/c2ccc3c(c2)OCO3)CCC/C1=C\c1ccc2c(c1)OCO2
selectivity ratio [1]: 11.7 | pEC50 (Trypanosoma cruzi [3]): 4.11 | selectivity ratio [6]: 3.3 | CC50 [4]: 257 µM | pIC50 (Trypanosoma cruzi [5]): < 4.00 | pIC50 (Leishmania amazonensis): 4.66

SMILES: COc1cc([N+](=O)[O-])ccc1/C=C1\CCC/C(=C\c2cccc(OC)c2OC)C1=O
selectivity ratio [1]: 25 | selectivity ratio [2]: 4.5 | pEC50 (Trypanosoma cruzi [3]): < 4.00 | CC50 [4]: 120 µM | pIC50 (Trypanosoma cruzi [5]): 4.58 | pIC50 (Leishmania amazonensis): 5.32

The next lines start with results.

pEC50 (Trypanosoma cruzi [3]): < 4.00 | pIC50 (Trypanosoma cruzi [5]): 4.69
SMILES: COc1ccc(/C=C2\CCC/C(=C\c3cccc(Br)c3)C2=O)cc1
selectivity ratio [1]: 5.3 | selectivity ratio [2]: 1.5 | CC50 [4]: 30 µM | pIC50 (Leishmania amazonensis): 5.24

pEC50 (Trypanosoma cruzi [3]): < 4.00 | pIC50 (Trypanosoma cruzi [5]): 4.67
SMILES: COc1ccc(/C=C2\CCC/C(=C\c3ccc(Cl)cc3)C2=O)cc1
selectivity ratio [1]: 22.5 | selectivity ratio [2]: 18.6 | CC50 [4]: 401 µM | pIC50 (Leishmania amazonensis): 4.75

pEC50 (Trypanosoma cruzi [3]): 4.62 | pIC50 (Trypanosoma cruzi [5]): 4.55
SMILES: COc1ccc(/C=C2\CCC/C(=C\c3cccc(OC)c3OC)C2=O)cc1OC
selectivity ratio [1]: 8 | selectivity ratio [2]: 1.3 | selectivity ratio [6]: 1.5 | CC50 [4]: 36.1 µM | pIC50 (Leishmania amazonensis): 5.35

pEC50 (Trypanosoma cruzi [3]): 4.46 | pIC50 (Trypanosoma cruzi [5]): 4.58
SMILES: COc1cccc(/C=C2\CCC/C(=C\c3c(Cl)cccc3Cl)C2=O)c1OC
selectivity ratio [1]: 43.3 | selectivity ratio [2]: 6.1 | selectivity ratio [6]: 4.6 | CC50 [4]: 160 µM | pIC50 (Leishmania amazonensis): 5.43

pEC50 (Trypanosoma cruzi [3]): 4.03 | pIC50 (Trypanosoma cruzi [5]): 4.08
SMILES: O=C1/C(=C/c2c(Cl)cccc2Cl)CCC/C1=C\c1c(Cl)cccc1Cl
selectivity ratio [1]: 117 | selectivity ratio [2]: 6.8 | selectivity ratio [6]: 6.1 | CC50 [4]: 574 µM | pIC50 (Leishmania amazonensis): 5.31

pEC50 (Trypanosoma cruzi [3]): 4.11 | pIC50 (Trypanosoma cruzi [5]): 4.46
SMILES: COc1cccc(/C=C2\CCC/C(=C\c3ccc(Br)cc3)C2=O)c1OC
selectivity ratio [1]: 1.6 | selectivity ratio [2]: 0.9 | selectivity ratio [6]: 0.4 | CC50 [4]: 31.5 µM | pIC50 (Leishmania amazonensis): 4.70

pEC50 (Trypanosoma cruzi [3]): 4.56 | pIC50 (Trypanosoma cruzi [5]): 4.48
SMILES: COc1cccc(/C=C2\CCC/C(=C\c3ccc([N+](=O)[O-])cc3)C2=O)c1OC
CC50 [4]: < 10 µM | pIC50 (Leishmania amazonensis): 5.41

pEC50 (Trypanosoma cruzi [3]): 4.12 | pIC50 (Trypanosoma cruzi [5]): 4.74
SMILES: O=C1/C(=C/c2ccccc2)CCC/C1=C\c1ccccc1 [2,6-DIBENZYLIDENECYCLOHEXANONE]
selectivity ratio [1]: 14.5 | selectivity ratio [2]: 2.2 | selectivity ratio [6]: 0.5 | CC50 [4]: 40.6 µM | pIC50 (Leishmania amazonensis): 5.55

pEC50 (Trypanosoma cruzi [3]): 4.52 | pIC50 (Trypanosoma cruzi [5]): 5.52
SMILES: COc1cccc(/C=C2\CCC/C(=C\c3cc(OC)c(OC)c(OC)c3)C2=O)c1OC
selectivity ratio [1]: 11.3 | selectivity ratio [2]: 9.8 | selectivity ratio [6]: 1 | CC50 [4]: 29.3 µM | pIC50 (Leishmania amazonensis): 5.59

pEC50 (Trypanosoma cruzi [3]): 4.16 | pIC50 (Trypanosoma cruzi [5]): 5.02
SMILES: COc1cc(/C=C2\CCC/C(=C\c3cc(OC)c(OC)c(OC)c3)C2=O)cc(OC)c1OC
selectivity ratio [1]: 9.1 | selectivity ratio [2]: 16.3 | selectivity ratio [6]: 2.2 | CC50 [4]: 155 µM | pIC50 (Leishmania amazonensis): 4.77

pEC50 (Trypanosoma cruzi [3]): 4.09 | pIC50 (Trypanosoma cruzi [5]): 4.58
SMILES: COc1cccc(/C=C2\CCC/C(=C\C(C)Cc3ccc4c(c3)OCO4)C2=O)c1OC (stereo not drawn)
selectivity ratio [1]: 17.8 | selectivity ratio [2]: 6.8 | selectivity ratio [6]: 2.2 | CC50 [4]: 178 µM | pIC50 (Leishmania amazonensis): 5.00

pEC50 (Trypanosoma cruzi [3]): < 4.00 | pIC50 (Trypanosoma cruzi [5]): 4.69
SMILES: COc1ccc(/C=C2\CCC/C(=C\c3ccccc3)C2=O)cc1
selectivity ratio [1]: 24.6 | selectivity ratio [2]: 14.1 | CC50 [4]: 291 µM | pIC50 (Leishmania amazonensis): 4.93

pEC50 (Trypanosoma cruzi [3]): < 4.00 | pIC50 (Trypanosoma cruzi [5]): < 4.00
SMILES: COc1ccc(/C=C2\CCC/C(=C\c3ccc([N+](=O)[O-])cc3)C2=O)cc1
CC50 [4]: 435 µM | pIC50 (Leishmania amazonensis): < 4.00

pEC50 (Trypanosoma cruzi [3]): 4.31 | pIC50 (Trypanosoma cruzi [5]): 4.53
SMILES: O=C1/C(=C/c2ccc(Br)cc2)CCC/C1=C\c1ccc(Br)cc1
selectivity ratio [1]: 13.8 | selectivity ratio [2]: 2 | selectivity ratio [6]: 1.2 | CC50 [4]: 58 µM | pIC50 (Leishmania amazonensis): 5.38

pEC50 (Trypanosoma cruzi [3]): < 4.00 | pIC50 (Trypanosoma cruzi [5]): < 4.00
SMILES: COc1cccc(/C=C2\CCCCC2=O)c1OC
CC50 [4]: 720 µM | pIC50 (Leishmania amazonensis): < 4.00
